# Experimental data as given in publication PMC10707737, “Indole Diterpene Derivatives from the Aspergillus flavus GZWMJZ-288, an Endophytic Fungus from Garcinia multiflora” (Molecules, 2023).
# “Also recorded” adds a separate entry of the source.
# Target: T1, NPC1L1 (Homo sapiens, UniProt Q9UHC9)
# T1 sequence (Q9UHC9 22-1359): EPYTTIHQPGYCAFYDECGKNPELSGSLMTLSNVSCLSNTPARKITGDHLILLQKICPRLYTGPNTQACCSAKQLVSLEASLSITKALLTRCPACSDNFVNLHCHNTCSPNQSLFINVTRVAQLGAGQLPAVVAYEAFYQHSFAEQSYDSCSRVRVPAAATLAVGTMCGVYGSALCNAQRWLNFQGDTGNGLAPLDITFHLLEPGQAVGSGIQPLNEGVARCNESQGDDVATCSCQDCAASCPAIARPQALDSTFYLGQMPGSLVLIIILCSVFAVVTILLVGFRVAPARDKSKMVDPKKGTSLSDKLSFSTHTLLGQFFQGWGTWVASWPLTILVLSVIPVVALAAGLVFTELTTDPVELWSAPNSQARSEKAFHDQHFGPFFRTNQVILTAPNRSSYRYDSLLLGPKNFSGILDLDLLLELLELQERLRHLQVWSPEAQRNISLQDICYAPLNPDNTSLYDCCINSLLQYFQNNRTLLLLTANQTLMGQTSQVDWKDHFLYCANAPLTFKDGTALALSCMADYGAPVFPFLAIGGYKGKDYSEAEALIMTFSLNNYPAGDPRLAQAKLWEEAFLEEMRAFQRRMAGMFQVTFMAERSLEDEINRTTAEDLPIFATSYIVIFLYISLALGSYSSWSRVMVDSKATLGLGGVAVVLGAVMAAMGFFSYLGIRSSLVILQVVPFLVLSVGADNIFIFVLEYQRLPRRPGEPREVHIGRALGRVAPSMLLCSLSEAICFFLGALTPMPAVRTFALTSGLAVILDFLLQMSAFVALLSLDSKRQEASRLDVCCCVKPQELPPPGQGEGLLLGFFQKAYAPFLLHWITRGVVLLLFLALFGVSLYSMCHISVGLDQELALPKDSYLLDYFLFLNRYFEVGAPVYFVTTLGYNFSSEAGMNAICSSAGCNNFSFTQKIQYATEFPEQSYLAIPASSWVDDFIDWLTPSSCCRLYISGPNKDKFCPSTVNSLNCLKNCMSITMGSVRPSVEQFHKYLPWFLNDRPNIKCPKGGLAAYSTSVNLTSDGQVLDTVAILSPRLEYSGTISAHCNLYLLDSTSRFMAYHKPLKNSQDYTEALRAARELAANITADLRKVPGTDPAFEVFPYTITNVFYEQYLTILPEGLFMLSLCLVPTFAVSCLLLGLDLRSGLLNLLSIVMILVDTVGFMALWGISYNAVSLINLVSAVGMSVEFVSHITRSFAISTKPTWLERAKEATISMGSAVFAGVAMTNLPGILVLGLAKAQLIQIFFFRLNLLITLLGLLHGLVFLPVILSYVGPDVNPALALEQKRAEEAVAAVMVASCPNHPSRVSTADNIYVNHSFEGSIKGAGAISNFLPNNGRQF
# Test: Combining ability test with NPC1L1 (SPR, Biacore)
# Type: binding
# Settings: fixed concentration 10 μM; ezetimibe positive control
# Description: NPC1L1 is currently considered to be the key protein for cholesterol absorption. It is impossible to evaluate the activity of targeting compounds on NPC1L1 through colorimetry assay due to NPC1L1′s lack of catalytic activity. The experiment was carried out under fixed concentration at 10 μM with ezetimibe as a positive control. Excess reactive esters on the sensor chip surface were blocked with 1 M ethanolamine (pH 8.5) for 7 min. The flow cell used for reference was activated and blocked as described above but remained uncoupled. Binding is typically reported in response units (RUs), which is defined as the response obtained from the flow cell containing the immobilized receptor minus the response obtained from the reference flow cell. CM5 series sensor chips and coupling reagents EDC and NHS were purchased from GE. The surface of the flow cell was activated for 7 min using a 1:1 mixture of 100 mM EDC and 100 mM NHS at a flow rate of 10 μL/mi. Subsequently, the corresponding proteins were injected over the surface for 7 min using the time and flow method (final immobilization level: 15,000 RU). Excess reactive esters on the sensor chip surface were blocked with 1 M ethanolamine (pH 8.5) for 7 min. The ability of compounds to combine with NPC1L1 protein was determined by the response value.
row,Compound,binding ability with NPC1L1 (SPR response)
1,"CC(=O)OCC(C)C1=C(c2c[nH]c3ccccc23)C2C(C)CC(O)C3(C)C(C)CCC(O)C23CC1 (stereo not drawn) [Compound 1, 26-dihydroxyaflavininyl acetate]",could bind well with NPC1L1; also recorded: comparable binding ability with NPC1L1
2,"C=C(C)C1CCC23[C@H](C1c1c[nH]c4ccccc14)[C@H](C)C[C@@H](O)[C@@]2(C)[C@H](C)CC[C@@H]3O (stereo partly drawn) [Compound 4, 14-eoi-14-hydroxy10,23-dihydro-24,25-dehydroaflavinine]",could bind well with NPC1L1; also recorded: comparable binding ability with NPC1L1
3,"CC(C)C1=C(c2c[nH]c3ccccc23)[C@@H]2[C@H](C)CC[C@@]3(C)[C@H](C)CC[C@H](O)C23CC1 (stereo partly drawn) [Compound 6, aflavinine]",could bind well with NPC1L1; also recorded: stronger than that of ezetimibe; also recorded: stronger binding ability with NPC1L1 than ezetimibe
